Where only a bound is given, the exact number is not on record here.

The IC50 is the point on the concentration scale where inhibition reaches its midpoint.

In the experiment the target is T1, human SLC6A19 (Homo sapiens, UniProt Q695T7).
T1 construct: expressed in transfected cells
T1 sequence (Q695T7 1-634): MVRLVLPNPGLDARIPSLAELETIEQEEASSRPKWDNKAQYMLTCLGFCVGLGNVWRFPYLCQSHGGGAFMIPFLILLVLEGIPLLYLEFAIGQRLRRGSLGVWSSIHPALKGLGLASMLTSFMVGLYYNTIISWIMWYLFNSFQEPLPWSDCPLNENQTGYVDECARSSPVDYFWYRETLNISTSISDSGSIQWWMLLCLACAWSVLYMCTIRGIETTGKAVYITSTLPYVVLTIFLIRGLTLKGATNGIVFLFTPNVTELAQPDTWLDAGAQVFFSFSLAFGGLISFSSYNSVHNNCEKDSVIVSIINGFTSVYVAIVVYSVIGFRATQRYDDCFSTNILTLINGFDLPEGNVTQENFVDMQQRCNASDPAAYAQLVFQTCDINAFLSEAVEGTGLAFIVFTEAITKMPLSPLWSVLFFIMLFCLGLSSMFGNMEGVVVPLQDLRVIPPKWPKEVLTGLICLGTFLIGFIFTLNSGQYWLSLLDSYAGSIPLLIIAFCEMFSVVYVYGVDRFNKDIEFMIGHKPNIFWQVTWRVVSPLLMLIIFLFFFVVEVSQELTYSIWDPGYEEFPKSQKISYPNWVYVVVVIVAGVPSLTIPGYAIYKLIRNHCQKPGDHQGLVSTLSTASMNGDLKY
T1 sequence (Q9HBJ8 15-222 partner): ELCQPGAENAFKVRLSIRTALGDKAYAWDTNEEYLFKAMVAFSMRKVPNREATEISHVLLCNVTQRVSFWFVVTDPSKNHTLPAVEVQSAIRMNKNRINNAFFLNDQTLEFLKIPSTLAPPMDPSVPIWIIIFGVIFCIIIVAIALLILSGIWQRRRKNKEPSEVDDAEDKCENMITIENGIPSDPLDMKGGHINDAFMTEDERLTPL
The experiment can be described thus: Example B2: 13C6,15N-isoleucine uptake, RapidFire mass spectrometry, in CHO cells with doxycycline-inducible expression of human SLC6A19 and TMEM27. Type of experiment: cell-based. As to conditions: read-out: SLC6A19_RapidFire Uptake Assay IC50. How it is done: Assay ready vials of CHO cells with doxycycline inducible expression of human SLC6A19 and TMEM27 were thawed, plated in T175 flasks containing DMEM/F12 media, 10% FBS, 100 Penicillin-Streptomycin, 1× UltraGlutamate, 1 mM Sodium Pyruvate, Sodium Bicarbonate (7.5 mL of 7.5% solution in 500 mL media final), […] Blasticidin, 150 µg/mL Hygromycin B Gold, and 500 µg/mL G418, and incubated (humidified, 37° C. with […]) for 48 hours. Media was then removed, flasks were washed with 20 mL of DPBS, and 5 mL of TryμLE™ Express was added to each flask to initiate cell dissociation. After 5 minutes, 10 mL of cell culture media was added to each flask and mixed. The cell suspension was collected and centrifuged for 5 minutes at 200×g. The supernatant was removed, and the pellet was resuspended in 10 mL of cell culture media. Resuspended cells were counted using a Vi-Cell. 30 μL/well (20,000 cells/well) of cell suspension was added to Poly-D-Lysine 384-well black/clear plates. Plates were incubated (humidified, 37° C. with 5% CO2) for 24 hours. To induce expression of human SLC6A19 and TMEM27, 10 μL of assay culture media containing 4 μg/mL doxycycline was added to each well. Assay plates were then incubated (humidified, 37° C. with 5% CO2) overnight. After incubation, the media was removed, and wells were washed 3 times with 40 μL of warmed DPBS. […] All compounds were plated in a duplicate 10-point dilution series that consisted of 2-fold dilutions. The plates were incubated (humidified, 37° C. with 5% CO2) with compound for 20 minutes. Afterwards, 20 μL/well of 2 mM 13C6,15N-1-isoleucine was added to each well and plates were incubated again (humidified, 37° C. with 5% CO2) for another 20 minutes. Assay buffer was then removed, and plates were washed. 70 μL/well of stop solution (75% acetonitrile, 25% HPLC grade water, 250 nM 1-leucine-1-13 C (RapidFire standard)) was added to each well. The plates were sealed and then placed in a −20° C. freezer for 20 minutes. The plates were thawed at room temperature for 20 minutes and then centrifuge for 20 minutes at 3000 rpm. Using an ABSciex API4000 mass spectrometer, processed samples were loaded onto the graphitic carbon SPE-column. The time for aspiration, load/wash, elution and re-equilibration time was 600, 1500, 3000 and 500 milliseconds, respectively. Peak areas were calculated using RapidFire Integrator software.
For `CN(C(=O)NCc1cc2cc(Cl)ccc2[nH]1)[C@@H]1CCCN(C(=O)C(C)(O)C(F)(F)F)C1` (stereo partly drawn) [Compound 50, 3-((5-chloro-1H-indol-2-yl)methyl)-1-methyl-1-((3R)-1-(3,3,3-trifluoro-2-hydroxy-2-methylpropanoyl)piperidin-3-yl)urea], the IC50 is 4770 nM. Consider `CN(C(=O)NCc1cc2cc(Cl)ccc2[nH]1)[C@@H]1CCCN(C(=O)c2ccnn2C)C1` [Compound 51, (R)-3-((5-chloro-1H-indol-2-yl)methyl)-1-methyl-1-(1-(1-methyl-1H-pyrazole-5-carbonyl)piperidin-3-yl)urea], for which the IC50 came out at 4800 nM.

On to `CN(C(=O)NCc1cc2cc(Cl)ccc2[nH]1)[C@@H]1CCCN(C(=O)c2ccccc2)C1` [Compound 52, (R)-1-(1-benzoylpiperidin-3-yl)-3-((5-chloro-1H-indol-2-yl)methyl)-1-methylurea], for which the IC50 was found to be 366 nM. Regarding `CC(=O)NCC(=O)N1CCC[C@@H](N(C)C(=O)NCc2cc3cc(Cl)ccc3[nH]2)C1` [Compound 53, (R)-N-(2-(3-(3-((5-chloro-1H-indol-2-yl)methyl)-1-methylureido)piperidin-1-yl)-2-oxoethyl)acetamide], the IC50 was determined as 1630 nM. Consider `CN(C(=O)NCc1cc2cc(Cl)ccc2[nH]1)[C@@H]1CCCN(C(=O)c2ccn(C)n2)C1` [Compound 54, (R)-3-((5-chloro-1H-indol-2-yl)methyl)-1-methyl-1-(1-(1-methyl-1H-pyrazole-3-carbonyl)piperidin-3-yl)urea], for which the IC50 was found to be 401 nM.

`CN(C(=O)NCc1cc2cc(Cl)ccc2[nH]1)[C@@H]1CCCN(C(=O)c2cnn(C)c2)C1` [Compound 55, (R)-3-((5-chloro-1H-indol-2-yl)methyl)-1-methyl-1-(1-(1-methyl-1H-pyrazole-4-carbonyl)piperidin-3-yl)urea]: the IC50 worked out at 571 nM.

Take `CN(C(=O)NCc1cc2cc(Cl)ccc2[nH]1)[C@@H]1CCCN(C(=O)CNC(=O)C(F)(F)F)C1` [Compound 56, (R)-N-(2-(3-(3-((5-chloro-1H-indol-2-yl)methyl)-1-methylureido)piperidin-1-yl)-2-oxoethyl)-2,2,2-trifluoroacetamide]: the IC50 came out at 2460 nM.

Regarding `CN(C(=O)NCc1cc2cc(Cl)ccc2[nH]1)[C@@H]1CCCN(C(=O)C2(C(F)(F)F)CC2)C1` [Compound 57, (R)-3-((5-chloro-1H-indol-2-yl)methyl)-1-methyl-1-(1-(1-(trifluoromethyl)cyclopropane-1-carbonyl)piperidin-3-yl)urea], the IC50 turned out to be 8640 nM.

With `Cc1[nH]cnc1C(=O)N1CCC[C@@H](N(C)C(=O)NCc2cc3cc(Cl)ccc3[nH]2)C1` [Compound 58, (R)-3-((5-chloro-1H-indol-2-yl)methyl)-1-methyl-1-(1-(5-methyl-1H-imidazole-4-carbonyl)piperidin-3-yl)urea], the half-maximal inhibitory concentration (IC50) turned out to be 4050 nM. For the molecule `CN(C(=O)NCc1cc2cc(Cl)ccc2[nH]1)[C@@H]1CCCN(C(=O)Cc2ccn[nH]2)C1` [Compound 59, (R)-1-(1-(2-(1H-pyrazol-5-yl)acetyl)piperidin-3-yl)-3-((5-chloro-1H-indol-2-yl)methyl)-1-methylurea], the IC50 worked out at 529 nM. Take `CN(C(=O)NCc1cc2cc(Cl)ccc2[nH]1)[C@@H]1CCCN(C(=O)C2CCC(=O)N2)C1` (stereo partly drawn) [Compound 60, 3-((5-chloro-1H-indol-2-yl)methyl)-1-methyl-1-((3R)-1-(5-oxopyrrolidine-2-carbonyl)piperidin-3-yl)urea]: the IC50 was 7780 nM. With `CN(C(=O)NCc1cc2cc(Cl)ccc2[nH]1)[C@@H]1CCCN(C(=O)C2CCCO2)C1` (stereo partly drawn) [Compound 61, 3-((5-chloro-1H-indol-2-yl)methyl)-1-methyl-1-((3R)-1-(tetrahydrofuran-2-carbonyl)piperidin-3-yl)urea], the 50% inhibitory concentration (IC50) is 542 nM. Next, `CN(C(=O)NCc1cc2cc(Cl)ccc2[nH]1)[C@@H]1CCCN(C(=O)Cc2cnccn2)C1` [Compound 62, (R)-3-((5-chloro-1H-indol-2-yl)methyl)-1-methyl-1-(1-(2-(pyrazin-2-yl)acetyl)piperidin-3-yl)urea]: 1350 nM. Turning to `CN(C(=O)NCc1cc2cc(Cl)ccc2[nH]1)[C@@H]1CCCN(C(=O)c2ccc(O)cc2F)C1` [Compound 63, (R)-3-((5-chloro-1H-indol-2-yl)methyl)-1-(1-(2-fluoro-4-hydroxybenzoyl)piperidin-3-yl)-1-methylurea], the IC50 stood at 935 nM.

Take `CN(C(=O)NCc1cc2cc(Cl)ccc2[nH]1)[C@@H]1CCCN(C(=O)[C@H]2C[C@H](O)C2)C1` [Compound 64, trans-(R)-3-((5-chloro-1H-indol-2-yl)methyl)-1-(1-(3-hydroxycyclobutane-1-carbonyl)piperidin-3-yl)-1-methylurea]: the half-maximal inhibitory concentration (IC50) stood at 651 nM.

Consider `Cc1noc(CC(=O)N2CCC[C@@H](N(C)C(=O)NCc3cc4cc(Cl)ccc4[nH]3)C2)n1` [Compound 65, (R)-3-((5-chloro-1H-indol-2-yl)methyl)-1-methyl-1-(1-(2-(3-methyl-1,2,4-oxadiazol-5-yl)acetyl)piperidin-3-yl)urea], for which the IC50 came out at 973 nM. Next, `CN(C(=O)NCc1cc2cc(Cl)ccc2[nH]1)[C@@H]1CCCN(C(=O)Cn2cccnc2=O)C1` [Compound 66, (R)-3-((5-chloro-1H-indol-2-yl)methyl)-1-methyl-1-(1-(2-(2-oxopyrimidin-1(2H)-yl)acetyl)piperidin-3-yl)urea]: 4240 nM; `CN(C(=O)NCc1cc2cc(Cl)ccc2[nH]1)[C@@H]1CCCN(C(=O)Cc2cccnc2)C1` [Compound 67, (R)-3-((5-chloro-1H-indol-2-yl)methyl)-1-methyl-1-(1-(2-(pyridin-3-yl)acetyl)piperidin-3-yl)urea]: 887 nM. Turning to `CN(C(=O)NCc1cc2cc(Cl)ccc2[nH]1)[C@@H]1CCCN(C(=O)Cc2ccccn2)C1` [Compound 68, (R)-3-((5-chloro-1H-indol-2-yl)methyl)-1-methyl-1-(1-(2-(pyridin-2-yl)acetyl)piperidin-3-yl)urea], the IC50 came out at 417 nM. Turning to `CN(C(=O)NCc1cc2cc(Cl)ccc2[nH]1)[C@@H]1CCCN(C(=O)c2onc3ccccc23)C1` [Compound 69, (R)-1-(1-(benzo[c]isoxazole-3-carbonyl)piperidin-3-yl)-3-((5-chloro-1H-indol-2-yl)methyl)-1-methylurea], the IC50 was more than 2810 nM. With `CC(C(=O)N1CCC[C@@H](N(C)C(=O)NCc2cc3cc(Cl)ccc3[nH]2)C1)n1cncn1` (stereo partly drawn) [Compound 70, 1-((3R)-1-(2-(1H-1,2,4-triazol-1-yl)propanoyl)piperidin-3-yl)-3-((5-chloro-1H-indol-2-yl)methyl)-1-methylurea], the IC50 was determined as 3060 nM. With `CCS(=O)(=O)CC(=O)N1CCC[C@@H](N(C)C(=O)NCc2cc3cc(Cl)ccc3[nH]2)C1` [Compound 71, (R)-3-((5-chloro-1H-indol-2-yl)methyl)-1-(1-(2-(ethylsulfonyl)acetyl)piperidin-3-yl)-1-methylurea] the figure was 6390 nM.

As for `CN(C(=O)NCc1cc2cc(Cl)ccc2[nH]1)[C@@H]1CCCN(C(=O)c2ccc3ocnc3c2)C1` [Compound 72, (R)-1-(1-(benzo[d]oxazole-5-carbonyl)piperidin-3-yl)-3-((5-chloro-1H-indol-2-yl)methyl)-1-methylurea], the IC50 came out at 1370 nM.

For the origin of these results see patent publication US20260184693A1, “INHIBITORS OF SOLUTE CARRIER FAMILY 6A MEMBER 19 (SLC6A19) AND METHODS OF USE THEREOF” (Maze Therapeutics, Inc., priority 2022, published 2026).
